Where two headings read alike, the source gives them in different places.
Assays:
genotype 2 or 3 HCV = assay: Example 3 Part II: Compound I QD x 7 days in treatment-naïve Genotype 2, 3, 4, 5 and 6 HCV-infected subjects, viral load (HCV RNA); format: in vivo; settings: 300 mg/day for 7 days
Procedure: (§1) This part were a randomized, open-label, parallel group study in treatment-naïve, Genotype 2, 3, 4, 5 and 6 HCV-infected subjects. Thirty (30) subjects were randomized across the treatment arms specified below.
(§2) Dosing, sampling, and analyses for Parts I and II were made according to Tables A and B.
(§3) Compound I was provided as size 0, white, hard hydroxypropyl methylcellulose (HPMC) capsules for oral administration at 5 mg, 25 mg and 50 mg strengths. The same powder blend containing 33.3% weight/weight (w/w) Compound I, a diluent, and a disintegrant is used to fill the capsules for all dose strengths. Matching placebo capsules will also be provided. Storage conditions will be provided on the study drug container label.
Dosing occurred between approximately 08:00 AM and 10:00 AM on each dosing day. Water was permitted ad libitum except for 1 hour before and after dosing. Dosing was immediately followed by administration of 240 mL (8 oz.) of water. Meals and beverages served within 24 hours prior to and post dosing were xanthine-free and caffeine-free. Grapefruit and grapefruit juice were not allowed within 7 days before reporting to the clinic on Day −1 and through the end of the study.

[1] = Example 3: tolerability (clinical and laboratory abnormalities) in HCV-infected subjects; format: in vivo, human; settings: 50-300 mg QD x 7 days
Text: (§4) This part was a randomized, double-blind, placebo-controlled, parallel group study in treatment-naïve, Genotype 1 HCV-infected subjects. Thirty (30) subjects were randomized across the treatment arms specified below.
as §1, §2

[2] = Example 4 Group B: plasma pharmacokinetics in genotype 1 HCV-infected subjects (LC/MS/MS); settings: human, in vivo, fasted; for AUC(0-inf) / Cmax / half-life: mean ± SD; for AUC(0-inf): read-out: AUC∞ of Compound I; for Cmax: read-out: Cmax of Compound I; for half-life: read-out: t1/2 of Compound I (converted); for Tmax: median, read-out: Tmax of Compound I
Procedure: (§5) Five sequential cohorts of 3 HCV-infected subjects (HCV) per cohort received under fasted conditions open-label Compound I at single ascending doses of 10, 25, 50, 150, and 300 mg (below, “Group B”).
as §3, with “25 mg,” for “25 mg”
(§6) For Groups A and B, dosing occurred between approximately 08:00 AM and 10:00 AM on each dosing day. Dosing was fasted for all subjects in Groups A and B. For fasted dosing, subjects observed a fasting period of approximately 10 hours prior to each dose and for an additional 4 hours post-dose.
Plasma samples were obtained up to 120 hours after dosing and the levels of Compound I and its Nucleoside metabolite were measured by using validated LC/MS/MS methodology. Plasma pharmacokinetic parameters were obtained by using non-compartmental analysis with parameters reported as mean±standard deviation (SD) except for Tmax where median (min-max) is shown.

HCV = assay: Example 3 Parts I and II: antiviral activity across genotypes; format: in vivo; settings: HCV-infected subjects, 50-300 mg QD x 7 days
Text: as §4, §1, §2

[3] = Example 4 Group B: safety (adverse events) in genotype 1 HCV-infected subjects; format: in vivo, human
Procedure: as §5, §6
Safety measurements included clinical history, routine laboratory evaluation, physical examination, 12-lead ECG, vital signs, adverse event (AE) assessment.

CC(C)OC(=O)[C@@H](C)N[P@@](=O)(OC[C@H]1O[C@@H](n2ccc(=O)[nH]c2=O)[C@](C)(Cl)[C@@H]1O)Oc1ccccc1 [Compound I]
response in genotype 2 versus genotype 3 HCV infection (genotype 2 or 3 HCV): similar
mean maximal viral load reduction (genotype 2 or 3 HCV; 10 genotype 2 or 3 HCV-infected patients): 4.3 logs
tolerability [1]: well-tolerated with no observed patterns of clinical or laboratory abnormalities
AUC(0-inf) ([2]; 10 mg single dose): 40 ± 12.6 ng·h/mL
Cmax ([2]; 10 mg single dose): 26.1 ± 11.9 ng/mL
half-life ([2]; 10 mg single dose): 1.47 ± 0.7 h
Tmax ([2]; 10 mg single dose): 0.5 h
AUC(0-inf) ([2]; 25 mg single dose): 140 ± 68.8 ng·h/mL
Cmax ([2]; 25 mg single dose): 68.4 ± 18.7 ng/mL
half-life ([2]; 25 mg single dose): 0.97 ± 0.29 h
Tmax ([2]; 25 mg single dose): 1 h
AUC(0-inf) ([2]; 50 mg single dose): 197 ± 40.1 ng·h/mL
Cmax ([2]; 50 mg single dose): 91.9 ± 10.7 ng/mL
half-life ([2]; 50 mg single dose): 1.19 ± 0.46 h
Tmax ([2]; 50 mg single dose): 1 h
AUC(0-inf) ([2]; 150 mg single dose): 664 ± 160 ng·h/mL
Cmax ([2]; 150 mg single dose): 297 ± 34 ng/mL
half-life ([2]; 150 mg single dose): 1.13 ± 0.29 h
Tmax ([2]; 150 mg single dose): 0.5 h
AUC(0-inf) ([2]; 300 mg single dose): 818 ± 256 ng·h/mL
Cmax ([2]; 300 mg single dose): 367 ± 537 ng/mL
half-life ([2]; 300 mg single dose): 1.58 ± 0.02 h
Tmax ([2]; 300 mg single dose): 1 h
antiviral activity across genotypes (HCV): potent pan-genotypic activity in a dose-dependent manner
Adverse event: Constipation ([3]; 10 mg single dose (n = 3)): 0 n, %
Adverse event: Diarrhea ([3]; 10 mg single dose (n = 3)): 0 n, %
Adverse event: Dry mouth ([3]; 10 mg single dose (n = 3)): 0 n, %
Adverse event: Dry skin ([3]; 10 mg single dose (n = 3)): 0 n, %
Adverse event: Dysuria ([3]; 10 mg single dose (n = 3)): 0 n, %
Adverse event: Fatigue ([3]; 10 mg single dose (n = 3)): 0 n, %
Adverse event: Feces hard ([3]; 10 mg single dose (n = 3)): 0 n, %
Adverse event: Flatulence ([3]; 10 mg single dose (n = 3)): 0 n, %
Adverse event: Headache ([3]; 10 mg single dose (n = 3)): 0 n, %
Adverse event: Myalgia ([3]; 10 mg single dose (n = 3)): 1 (33.3) n, %
Adverse event: Neck pain ([3]; 10 mg single dose (n = 3)): 0 n, %
Adverse event: Pruritus ([3]; 10 mg single dose (n = 3)): 0 n, %
Adverse event: Pruritus generalized ([3]; 10 mg single dose (n = 3)): 0 n, %
Adverse event: Vessel puncture site bruise ([3]; 10 mg single dose (n = 3)): 0 n, %
Subjects with AE ([3]; 10 mg single dose (n = 3)): 1 (33.3) n, %
Adverse event: Constipation ([3]; 25 mg single dose (n = 3)): 1 (33.3) n, %
Adverse event: Diarrhea ([3]; 25 mg single dose (n = 3)): 0 n, %
Adverse event: Dry mouth ([3]; 25 mg single dose (n = 3)): 0 n, %
Adverse event: Dry skin ([3]; 25 mg single dose (n = 3)): 0 n, %
Adverse event: Dysuria ([3]; 25 mg single dose (n = 3)): 0 n, %
Adverse event: Fatigue ([3]; 25 mg single dose (n = 3)): 1 (33.3) n, %
Adverse event: Feces hard ([3]; 25 mg single dose (n = 3)): 0 n, %
Adverse event: Flatulence ([3]; 25 mg single dose (n = 3)): 1 (33.3) n, %
Adverse event: Headache ([3]; 25 mg single dose (n = 3)): 1 (33.3) n, %
Adverse event: Myalgia ([3]; 25 mg single dose (n = 3)): 0 n, %
Adverse event: Neck pain ([3]; 25 mg single dose (n = 3)): 1 (33.3) n, %
Adverse event: Pruritus ([3]; 25 mg single dose (n = 3)): 0 n, %
Adverse event: Pruritus generalized ([3]; 25 mg single dose (n = 3)): 0 n, %
Adverse event: Vessel puncture site bruise ([3]; 25 mg single dose (n = 3)): 0 n, %
Subjects with AE ([3]; 25 mg single dose (n = 3)): 2 (66.7) n, %
Adverse event: Constipation ([3]; 50 mg single dose (n = 3)): 0 n, %
Adverse event: Diarrhea ([3]; 50 mg single dose (n = 3)): 0 n, %
Adverse event: Dry mouth ([3]; 50 mg single dose (n = 3)): 0 n, %
Adverse event: Dry skin ([3]; 50 mg single dose (n = 3)): 0 n, %
Adverse event: Dysuria ([3]; 50 mg single dose (n = 3)): 1 (33.3) n, %
Adverse event: Fatigue ([3]; 50 mg single dose (n = 3)): 0 n, %
Adverse event: Feces hard ([3]; 50 mg single dose (n = 3)): 0 n, %
Adverse event: Flatulence ([3]; 50 mg single dose (n = 3)): 0 n, %
Adverse event: Headache ([3]; 50 mg single dose (n = 3)): 0 n, %
Adverse event: Myalgia ([3]; 50 mg single dose (n = 3)): 0 n, %
Adverse event: Neck pain ([3]; 50 mg single dose (n = 3)): 0 n, %
Adverse event: Pruritus ([3]; 50 mg single dose (n = 3)): 0 n, %
Adverse event: Pruritus generalized ([3]; 50 mg single dose (n = 3)): 0 n, %
Adverse event: Vessel puncture site bruise ([3]; 50 mg single dose (n = 3)): 0 n, %
Subjects with AE ([3]; 50 mg single dose (n = 3)): 1 (33.3) n, %
Adverse event: Constipation ([3]; 150 mg single dose (n = 3)): 0 n, %
Adverse event: Diarrhea ([3]; 150 mg single dose (n = 3)): 0 n, %
Adverse event: Dry mouth ([3]; 150 mg single dose (n = 3)): 1 (33.3) n, %
Adverse event: Dry skin ([3]; 150 mg single dose (n = 3)): 1 (33.3) n, %
Adverse event: Dysuria ([3]; 150 mg single dose (n = 3)): 0 n, %
Adverse event: Fatigue ([3]; 150 mg single dose (n = 3)): 1 (33.3) n, %
Adverse event: Feces hard ([3]; 150 mg single dose (n = 3)): 0 n, %
Adverse event: Flatulence ([3]; 150 mg single dose (n = 3)): 0 n, %
Adverse event: Headache ([3]; 150 mg single dose (n = 3)): 0 n, %
Adverse event: Myalgia ([3]; 150 mg single dose (n = 3)): 0 n, %
Adverse event: Neck pain ([3]; 150 mg single dose (n = 3)): 0 n, %
Adverse event: Pruritus ([3]; 150 mg single dose (n = 3)): 1 (33.3) n, %
Adverse event: Pruritus generalized ([3]; 150 mg single dose (n = 3)): 1 (33.3) n, %
Adverse event: Vessel puncture site bruise ([3]; 150 mg single dose (n = 3)): 0 n, %
Subjects with AE ([3]; 150 mg single dose (n = 3)): 2 (66.7) n, %
Adverse event: Constipation ([3]; 300 mg single dose (n = 3)): 0 n, %
Adverse event: Diarrhea ([3]; 300 mg single dose (n = 3)): 1 (33.3) n, %
Adverse event: Dry mouth ([3]; 300 mg single dose (n = 3)): 0 n, %
Adverse event: Dry skin ([3]; 300 mg single dose (n = 3)): 0 n, %
Adverse event: Dysuria ([3]; 300 mg single dose (n = 3)): 0 n, %
Adverse event: Fatigue ([3]; 300 mg single dose (n = 3)): 0 n, %
Adverse event: Feces hard ([3]; 300 mg single dose (n = 3)): 1 (33.3) n, %
Adverse event: Flatulence ([3]; 300 mg single dose (n = 3)): 0 n, %
Adverse event: Headache ([3]; 300 mg single dose (n = 3)): 0 n, %
Adverse event: Myalgia ([3]; 300 mg single dose (n = 3)): 0 n, %
Adverse event: Neck pain ([3]; 300 mg single dose (n = 3)): 0 n, %
Adverse event: Pruritus ([3]; 300 mg single dose (n = 3)): 0 n, %
Adverse event: Pruritus generalized ([3]; 300 mg single dose (n = 3)): 0 n, %
Adverse event: Vessel puncture site bruise ([3]; 300 mg single dose (n = 3)): 1 (33.3) n, %
Subjects with AE ([3]; 300 mg single dose (n = 3)): 2 (66.7) n, %

Source: patent US20170066795A1, “SOLID PRODRUG FORMS OF 2'-CHLORO-2'-METHYL URIDINE FOR HCV” (IDENIX PHARMACEUTICALS LLC, priority 2014, published 2017)
